Legend:
[1] = Plasma stability evaluation (TLC analysis); format: in vitro ADME; details: 37° C., 60 minutes, TLC analysis
Procedure, shortened: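 Radiolabelled compounds were incubated in heparin-treated pooled normal human plasma at 37° C for 60 minutes. After methanol deproteinization and centrifugation, stability was assessed by TLC under the conditions used for each compound's synthesis.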

[2] = In vivo kinetics experiment (radioactivity distribution); set-up: species or system Wistar male rat; details: rat, caudal vein
Procedure, shortened: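 Male Wistar rats (9 weeks) under isoflurane received approximately 1 to 3.7 MBq radiotracer in saline with 1 w/v % ascorbic acid by tail-vein injection. At 10, 30 and 60 min, rats were exsanguinated; blood, organs and remaining body weighed and counted, giving % ID/g and adrenal-to-tissue ratios.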

[3] = tested on: human adrenal gland section expressing aldosterone-producing adenoma; experiment: In vitro autoradiography using human adrenal adenoma; format: binding; details: section of FIG. 17(a)
Procedure, shortened: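 Frozen 7-μm sections of human adrenal bearing aldosterone-producing adenoma were immersed 10 min in radioligand (5-33 kBq/mL) in PBS with 1% fatty-acid-free BSA, washed, then exposed to imaging plates for 16-20 h. Equal-area ROI PSL in adenoma (B2) versus normal cortex (B1) gave B2/B1, corrected for nuclide half-life, added activity and exposure time.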

**Q.** What does the source list for “Methyl 1-[4-(1-cyclopropyl-6-[^123I]iodo-1H-imidazobenzo-2-yl)-3-pyridinylmethyl)]-1H-imidazolecarboxylate [[^123I] 601]”?
**A.** Radiochemical purity after incubation in human plasma [1]: 98%; Adrenal gland/blood ratio of radioactivity accumulation ([2]; 10 min after administration): 49.76 ± 8.04; Adrenal gland/fat ratio of radioactivity accumulation ([2]; 10 min after administration): 48.18 ± 26.02; Adrenal gland/kidney ratio of radioactivity accumulation ([2]; 10 min after administration): 11.53 ± 2.04; Adrenal gland/liver ratio of radioactivity accumulation ([2]; 10 min after administration): 3.21 ± 0.44; Adrenal gland/muscle ratio of radioactivity accumulation ([2]; 10 min after administration): 51.74 ± 11.28; Adrenal gland/small intestine ratio of radioactivity accumulation ([2]; 10 min after administration): 6.93 ± 2.04; Radioactivity distribution Adrenal gland ([2]; 10 min after administration): 13.40 ± 2.41 % ID/g; Radioactivity distribution Bladder (including urine) ([2]; 10 min after administration): 0.65 ± 0.26 % ID/g; Radioactivity distribution Blood ([2]; 10 min after administration): 0.27 ± 0.01 % ID/g; Radioactivity distribution Fat ([2]; 10 min after administration): 0.34 ± 0.16 % ID/g; Radioactivity distribution Heart ([2]; 10 min after administration): 0.61 ± 0.03 % ID/g; Radioactivity distribution Kidney ([2]; 10 min after administration): 1.16 ± 0.02 % ID/g; Radioactivity distribution Large intestine ([2]; 10 min after administration): 0.14 ± 0.01 % ID/g; Radioactivity distribution Liver ([2]; 10 min after administration): 4.15 ± 0.27 % ID/g; Radioactivity distribution Lung ([2]; 10 min after administration): 0.54 ± 0.01 % ID/g; Radioactivity distribution Muscle (lower limbs) ([2]; 10 min after administration): 0.26 ± 0.02 % ID/g; Radioactivity distribution Remaining whole body ([2]; 10 min after administration): 0.30 ± 0.01 % ID/g; Radioactivity distribution Small intestine ([2]; 10 min after administration): 1.99 ± 0.27 % ID/g; Radioactivity distribution Spleen ([2]; 10 min after administration): 0.51 ± 0.02 % ID/g; Radioactivity distribution Stomach ([2]; 10 min after administration): 0.83 ± 0.25 % ID/g; Radioactivity distribution Testis ([2]; 10 min after administration): 0.32 ± 0.01 % ID/g; Radioactivity distribution Thyroid gland ([2]; 10 min after administration): 0.62 ± 0.09 % ID/g; Radioactivity distribution Whole brain ([2]; 10 min after administration): 0.15 ± 0.01 % ID/g; Adrenal gland/blood ratio of radioactivity accumulation ([2]; 30 min after administration): 88.31 ± 19.36; Adrenal gland/fat ratio of radioactivity accumulation ([2]; 30 min after administration): 34.33 ± 3.72; Adrenal gland/kidney ratio of radioactivity accumulation ([2]; 30 min after administration): 28.94 ± 22.29; Adrenal gland/liver ratio of radioactivity accumulation ([2]; 30 min after administration): 6.49 ± 1.59; Adrenal gland/muscle ratio of radioactivity accumulation ([2]; 30 min after administration): 72.90 ± 18.29; Adrenal gland/small intestine ratio of radioactivity accumulation ([2]; 30 min after administration): 3.30 ± 0.96; Radioactivity distribution Adrenal gland ([2]; 30 min after administration): 17.21 ± 1.46 % ID/g; Radioactivity distribution Bladder (including urine) ([2]; 30 min after administration): 0.41 ± 0.03 % ID/g; Radioactivity distribution Blood ([2]; 30 min after administration): 0.20 ± 0.03 % ID/g; Radioactivity distribution Fat ([2]; 30 min after administration): 0.50 ± 0.03 % ID/g; Radioactivity distribution Heart ([2]; 30 min after administration): 0.42 ± 0.08 % ID/g; Radioactivity distribution Kidney ([2]; 30 min after administration): 0.80 ± 0.39 % ID/g; Radioactivity distribution Large intestine ([2]; 30 min after administration): 0.15 ± 0.01 % ID/g; Radioactivity distribution Liver ([2]; 30 min after administration): 2.71 ± 0.39 % ID/g; Radioactivity distribution Lung ([2]; 30 min after administration): 0.43 ± 0.07 % ID/g; Radioactivity distribution Muscle (lower limbs) ([2]; 30 min after administration): 0.24 ± 0.04 % ID/g; Radioactivity distribution Remaining whole body ([2]; 30 min after administration): 0.24 ± 0.03 % ID/g; Radioactivity distribution Small intestine ([2]; 30 min after administration): 5.54 ± 1.72 % ID/g; Radioactivity distribution Spleen ([2]; 30 min after administration): 0.35 ± 0.07 % ID/g; Radioactivity distribution Stomach ([2]; 30 min after administration): 0.86 ± 0.23 % ID/g; Radioactivity distribution Testis ([2]; 30 min after administration): 0.31 ± 0.05 % ID/g; Radioactivity distribution Thyroid gland ([2]; 30 min after administration): 0.69 ± 0.26 % ID/g; Radioactivity distribution Whole brain ([2]; 30 min after administration): 0.11 ± 0.02 % ID/g; Adrenal gland/blood ratio of radioactivity accumulation ([2]; 60 min after administration): 73.52 ± 21.70; Adrenal gland/fat ratio of radioactivity accumulation ([2]; 60 min after administration): 18.31 ± 9.45; Adrenal gland/kidney ratio of radioactivity accumulation ([2]; 60 min after administration): 10.42 ± 4.49; Adrenal gland/liver ratio of radioactivity accumulation ([2]; 60 min after administration): 4.79 ± 1.48; Adrenal gland/muscle ratio of radioactivity accumulation ([2]; 60 min after administration): 63.30 ± 21.65; Adrenal gland/small intestine ratio of radioactivity accumulation ([2]; 60 min after administration): 0.99 ± 0.55; Radioactivity distribution Adrenal gland ([2]; 60 min after administration): 8.87 ± 3.98 % ID/g; Radioactivity distribution Bladder (including urine) ([2]; 60 min after administration): 1.17 ± 0.51 % ID/g; Radioactivity distribution Blood ([2]; 60 min after administration): 0.12 ± 0.02 % ID/g; Radioactivity distribution Fat ([2]; 60 min after administration): 0.50 ± 0.09 % ID/g; Radioactivity distribution Heart ([2]; 60 min after administration): 0.26 ± 0.05 % ID/g; Radioactivity distribution Kidney ([2]; 60 min after administration): 0.84 ± 0.09 % ID/g; Radioactivity distribution Large intestine ([2]; 60 min after administration): 0.14 ± 0.02 % ID/g; Radioactivity distribution Liver ([2]; 60 min after administration): 1.80 ± 0.26 % ID/g; Radioactivity distribution Lung ([2]; 60 min after administration): 0.26 ± 0.03 % ID/g; Radioactivity distribution Muscle (lower limbs) ([2]; 60 min after administration): 0.14 ± 0.02 % ID/g; Radioactivity distribution Remaining whole body ([2]; 60 min after administration): 0.15 ± 0.01 % ID/g; Radioactivity distribution Small intestine ([2]; 60 min after administration): 9.33 ± 1.02 % ID/g; Radioactivity distribution Spleen ([2]; 60 min after administration): 0.20 ± 0.03 % ID/g; Radioactivity distribution Stomach ([2]; 60 min after administration): 0.50 ± 0.29 % ID/g; Radioactivity distribution Testis ([2]; 60 min after administration): 0.22 ± 0.05 % ID/g; Radioactivity distribution Thyroid gland ([2]; 60 min after administration): 0.93 ± 0.47 % ID/g; Radioactivity distribution Whole brain ([2]; 60 min after administration): 0.10 ± 0.04 % ID/g; B2/B1 accumulation ratio [3]: 1.05; B2 (PSL value, aldosterone-producing adenoma) ([3]; site 71a): 3201; B1 (PSL value, normal adrenal cortex) ([3]; site 72a): 3040
